The values below come from ChEMBL document CHEMBL1142734, “Biological properties of D- and L-1-deoxyazasugars” (J Med Chem, 2005).

Experiment [1] concerns the target T1, Tissue alpha-L-fucosidase (Bos taurus, UniProt Q2KIM0).
T1 sequence (Q2KIM0 whole entry): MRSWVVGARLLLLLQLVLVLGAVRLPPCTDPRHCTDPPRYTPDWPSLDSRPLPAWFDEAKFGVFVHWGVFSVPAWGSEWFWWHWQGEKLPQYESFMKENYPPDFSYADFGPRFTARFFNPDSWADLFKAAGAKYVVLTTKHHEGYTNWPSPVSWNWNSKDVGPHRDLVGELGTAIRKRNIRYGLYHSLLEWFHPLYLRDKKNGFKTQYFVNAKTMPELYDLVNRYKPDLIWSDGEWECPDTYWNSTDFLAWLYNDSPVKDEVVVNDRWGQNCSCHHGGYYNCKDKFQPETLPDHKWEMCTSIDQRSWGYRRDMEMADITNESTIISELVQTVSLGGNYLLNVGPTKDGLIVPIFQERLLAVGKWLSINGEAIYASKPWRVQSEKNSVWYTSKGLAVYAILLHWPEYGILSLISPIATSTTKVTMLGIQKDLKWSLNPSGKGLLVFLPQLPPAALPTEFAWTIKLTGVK
Kind of experiment: Ki value against bovine alpha-L-fucosidase.

The target in experiment [2] is T2, Beta-galactosidase (Rattus norvegicus) (UniProt D3ZUM4).
T2 sequence (whole entry): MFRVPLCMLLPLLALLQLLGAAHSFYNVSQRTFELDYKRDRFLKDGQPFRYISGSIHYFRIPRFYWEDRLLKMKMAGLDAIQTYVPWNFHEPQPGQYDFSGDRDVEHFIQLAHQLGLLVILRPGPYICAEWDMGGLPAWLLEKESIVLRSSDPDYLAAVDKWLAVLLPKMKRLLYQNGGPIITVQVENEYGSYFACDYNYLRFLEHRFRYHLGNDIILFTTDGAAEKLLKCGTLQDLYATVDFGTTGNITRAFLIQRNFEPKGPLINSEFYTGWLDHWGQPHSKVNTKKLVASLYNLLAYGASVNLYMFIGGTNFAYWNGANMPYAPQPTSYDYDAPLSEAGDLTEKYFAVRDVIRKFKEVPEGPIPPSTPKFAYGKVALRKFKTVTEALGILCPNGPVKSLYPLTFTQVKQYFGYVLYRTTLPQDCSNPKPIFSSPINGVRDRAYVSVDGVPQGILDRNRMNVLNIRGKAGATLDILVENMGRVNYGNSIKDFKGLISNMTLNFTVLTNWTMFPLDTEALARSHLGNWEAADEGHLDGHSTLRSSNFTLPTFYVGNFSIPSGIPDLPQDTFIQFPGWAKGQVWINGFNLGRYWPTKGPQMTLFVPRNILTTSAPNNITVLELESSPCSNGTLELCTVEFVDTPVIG
As to the kind of experiment: Percent inhibition of beta-galactosidase of rat epididymis at 1000 uM.

The target of experiment [3] is Alpha-galactosidase (Coffea arabica) (UniProt Q5DUH8). The conditions noted are these: 1000 uM.
Sequence of Alpha-galactosidase (Coffea arabica) (Q5DUH8 as listed by the source): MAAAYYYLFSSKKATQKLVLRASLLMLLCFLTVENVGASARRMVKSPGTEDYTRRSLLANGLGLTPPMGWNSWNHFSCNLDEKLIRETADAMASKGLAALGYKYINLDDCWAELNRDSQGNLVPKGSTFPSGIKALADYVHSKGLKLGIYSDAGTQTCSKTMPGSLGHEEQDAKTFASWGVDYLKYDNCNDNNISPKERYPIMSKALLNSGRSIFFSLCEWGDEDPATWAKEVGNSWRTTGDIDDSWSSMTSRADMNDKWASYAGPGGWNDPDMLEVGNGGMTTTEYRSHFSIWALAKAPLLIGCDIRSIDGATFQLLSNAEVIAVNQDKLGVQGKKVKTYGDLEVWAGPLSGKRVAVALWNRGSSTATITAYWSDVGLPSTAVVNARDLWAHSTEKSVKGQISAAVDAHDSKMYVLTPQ
For experiment [4], the target named is T3, Beta-galactosidase (Bos taurus) (UniProt Q58D55).
T3 sequence (whole entry): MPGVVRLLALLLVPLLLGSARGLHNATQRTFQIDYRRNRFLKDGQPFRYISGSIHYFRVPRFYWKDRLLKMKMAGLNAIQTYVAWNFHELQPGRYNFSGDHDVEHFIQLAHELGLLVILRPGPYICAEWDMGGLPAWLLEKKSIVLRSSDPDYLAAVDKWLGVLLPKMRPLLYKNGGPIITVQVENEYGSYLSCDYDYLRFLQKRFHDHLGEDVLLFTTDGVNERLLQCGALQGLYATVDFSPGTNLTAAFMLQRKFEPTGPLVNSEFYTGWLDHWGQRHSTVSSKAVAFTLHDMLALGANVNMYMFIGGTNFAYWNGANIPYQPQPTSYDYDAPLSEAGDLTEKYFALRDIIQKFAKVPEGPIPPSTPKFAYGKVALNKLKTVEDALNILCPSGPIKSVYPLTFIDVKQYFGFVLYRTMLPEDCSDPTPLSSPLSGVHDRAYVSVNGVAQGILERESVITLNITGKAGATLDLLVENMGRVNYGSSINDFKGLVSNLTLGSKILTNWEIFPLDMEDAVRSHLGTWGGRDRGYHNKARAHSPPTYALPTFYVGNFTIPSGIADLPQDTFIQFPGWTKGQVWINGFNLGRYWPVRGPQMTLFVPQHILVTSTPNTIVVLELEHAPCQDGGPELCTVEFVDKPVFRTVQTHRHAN
Kind of experiment: Percent inhibition of beta-galactosidase of bovine liver at 1000 uM.

Experiment [5] deals with T4, Alpha-galactosidase C (Aspergillus niger) (UniProt Q9UUZ4).
T4 sequence (whole entry): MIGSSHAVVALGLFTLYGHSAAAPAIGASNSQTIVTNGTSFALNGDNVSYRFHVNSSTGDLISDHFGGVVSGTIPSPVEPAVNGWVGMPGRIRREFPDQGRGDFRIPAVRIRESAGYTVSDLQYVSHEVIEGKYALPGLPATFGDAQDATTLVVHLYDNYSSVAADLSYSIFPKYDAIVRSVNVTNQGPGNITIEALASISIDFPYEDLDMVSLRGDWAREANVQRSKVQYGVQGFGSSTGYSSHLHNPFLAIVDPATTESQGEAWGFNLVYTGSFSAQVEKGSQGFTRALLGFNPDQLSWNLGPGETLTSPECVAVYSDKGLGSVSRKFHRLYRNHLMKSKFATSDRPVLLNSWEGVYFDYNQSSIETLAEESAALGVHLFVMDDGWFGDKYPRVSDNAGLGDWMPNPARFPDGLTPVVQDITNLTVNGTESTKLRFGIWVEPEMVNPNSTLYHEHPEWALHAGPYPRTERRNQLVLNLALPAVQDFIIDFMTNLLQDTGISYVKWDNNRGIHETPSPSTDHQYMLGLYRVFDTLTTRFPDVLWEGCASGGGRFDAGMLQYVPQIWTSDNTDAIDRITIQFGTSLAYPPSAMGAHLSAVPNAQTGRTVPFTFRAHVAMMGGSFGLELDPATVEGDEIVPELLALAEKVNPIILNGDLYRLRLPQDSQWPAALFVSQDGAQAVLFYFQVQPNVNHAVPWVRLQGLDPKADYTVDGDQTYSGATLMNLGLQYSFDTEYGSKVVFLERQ
As to the kind of experiment: Percent inhibition of alpha-galactosidase of Aspergillus niger at 1000 uM.

The target of experiment [6] is T5, Tissue alpha-L-fucosidase (Bos taurus) (UniProt Q2KIM0).
T5 sequence (whole entry): T1 sequence (Q2KIM0 whole entry)
To be noted: 1000 uM.

Experiment [7] concerns the target Sucrase-isomaltase, intestinal (Rattus norvegicus) (UniProt P23739). To be noted: 1000 uM.
For experiment [8], the target named is T6, Beta-mannosidase (Rattus norvegicus) (UniProt Q4FZV0).
T6 sequence (whole entry): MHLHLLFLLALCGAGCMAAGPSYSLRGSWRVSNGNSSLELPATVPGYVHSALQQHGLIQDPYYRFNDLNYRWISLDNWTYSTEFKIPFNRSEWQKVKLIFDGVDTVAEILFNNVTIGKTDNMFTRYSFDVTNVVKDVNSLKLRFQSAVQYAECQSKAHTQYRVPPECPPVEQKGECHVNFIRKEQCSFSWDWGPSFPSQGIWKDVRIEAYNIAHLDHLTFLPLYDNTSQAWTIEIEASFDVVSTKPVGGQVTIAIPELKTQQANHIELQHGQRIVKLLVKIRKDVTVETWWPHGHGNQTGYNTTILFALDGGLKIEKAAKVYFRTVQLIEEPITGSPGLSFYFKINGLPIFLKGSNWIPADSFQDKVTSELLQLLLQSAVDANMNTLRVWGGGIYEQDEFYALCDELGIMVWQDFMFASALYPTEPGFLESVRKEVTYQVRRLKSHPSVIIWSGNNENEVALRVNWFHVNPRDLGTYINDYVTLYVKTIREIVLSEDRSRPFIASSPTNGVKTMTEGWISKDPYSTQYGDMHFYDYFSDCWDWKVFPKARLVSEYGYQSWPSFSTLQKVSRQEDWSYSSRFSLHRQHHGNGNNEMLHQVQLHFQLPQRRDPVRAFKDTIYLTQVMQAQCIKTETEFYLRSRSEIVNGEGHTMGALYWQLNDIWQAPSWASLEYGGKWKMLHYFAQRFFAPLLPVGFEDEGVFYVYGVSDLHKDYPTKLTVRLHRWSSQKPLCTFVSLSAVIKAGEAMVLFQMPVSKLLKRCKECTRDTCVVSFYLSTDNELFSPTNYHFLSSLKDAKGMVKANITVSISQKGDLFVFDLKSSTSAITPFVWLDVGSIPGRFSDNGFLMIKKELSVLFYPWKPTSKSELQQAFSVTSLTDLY
Kind of experiment: Percent inhibition of beta-mannosidase of rat epididymis at 1000 uM.

Sequence of Sucrase-isomaltase, intestinal (Rattus norvegicus) (P23739 1-1013 limits assumed): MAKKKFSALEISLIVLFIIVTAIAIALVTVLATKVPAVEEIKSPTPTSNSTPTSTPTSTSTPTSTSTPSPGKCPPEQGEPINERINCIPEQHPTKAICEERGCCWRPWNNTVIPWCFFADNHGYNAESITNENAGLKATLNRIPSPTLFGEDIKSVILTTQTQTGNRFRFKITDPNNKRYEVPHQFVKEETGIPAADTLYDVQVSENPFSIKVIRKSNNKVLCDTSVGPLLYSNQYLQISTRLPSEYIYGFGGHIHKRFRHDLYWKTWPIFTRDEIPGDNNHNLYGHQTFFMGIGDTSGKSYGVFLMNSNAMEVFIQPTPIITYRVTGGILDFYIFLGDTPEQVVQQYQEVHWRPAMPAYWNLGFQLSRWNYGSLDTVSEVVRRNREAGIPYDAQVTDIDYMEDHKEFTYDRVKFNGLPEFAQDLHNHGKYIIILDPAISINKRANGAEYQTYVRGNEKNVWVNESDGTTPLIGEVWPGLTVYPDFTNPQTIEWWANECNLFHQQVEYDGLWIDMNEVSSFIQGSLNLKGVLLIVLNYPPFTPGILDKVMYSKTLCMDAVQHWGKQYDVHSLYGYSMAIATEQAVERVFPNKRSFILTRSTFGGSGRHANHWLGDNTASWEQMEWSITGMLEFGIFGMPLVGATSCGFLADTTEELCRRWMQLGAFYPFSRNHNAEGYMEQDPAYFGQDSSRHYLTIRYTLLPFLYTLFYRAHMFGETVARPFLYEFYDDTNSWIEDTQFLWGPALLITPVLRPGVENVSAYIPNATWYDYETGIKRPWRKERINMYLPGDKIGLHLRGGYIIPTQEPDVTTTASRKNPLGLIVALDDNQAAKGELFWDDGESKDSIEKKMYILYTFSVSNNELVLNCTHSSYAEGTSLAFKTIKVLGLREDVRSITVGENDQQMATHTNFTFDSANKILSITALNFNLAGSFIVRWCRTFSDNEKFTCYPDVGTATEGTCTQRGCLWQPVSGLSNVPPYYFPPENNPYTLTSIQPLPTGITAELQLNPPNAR
Sequence of Sucrase-isomaltase, intestinal (Rattus norvegicus) (P23739 1014-1841 limits assumed): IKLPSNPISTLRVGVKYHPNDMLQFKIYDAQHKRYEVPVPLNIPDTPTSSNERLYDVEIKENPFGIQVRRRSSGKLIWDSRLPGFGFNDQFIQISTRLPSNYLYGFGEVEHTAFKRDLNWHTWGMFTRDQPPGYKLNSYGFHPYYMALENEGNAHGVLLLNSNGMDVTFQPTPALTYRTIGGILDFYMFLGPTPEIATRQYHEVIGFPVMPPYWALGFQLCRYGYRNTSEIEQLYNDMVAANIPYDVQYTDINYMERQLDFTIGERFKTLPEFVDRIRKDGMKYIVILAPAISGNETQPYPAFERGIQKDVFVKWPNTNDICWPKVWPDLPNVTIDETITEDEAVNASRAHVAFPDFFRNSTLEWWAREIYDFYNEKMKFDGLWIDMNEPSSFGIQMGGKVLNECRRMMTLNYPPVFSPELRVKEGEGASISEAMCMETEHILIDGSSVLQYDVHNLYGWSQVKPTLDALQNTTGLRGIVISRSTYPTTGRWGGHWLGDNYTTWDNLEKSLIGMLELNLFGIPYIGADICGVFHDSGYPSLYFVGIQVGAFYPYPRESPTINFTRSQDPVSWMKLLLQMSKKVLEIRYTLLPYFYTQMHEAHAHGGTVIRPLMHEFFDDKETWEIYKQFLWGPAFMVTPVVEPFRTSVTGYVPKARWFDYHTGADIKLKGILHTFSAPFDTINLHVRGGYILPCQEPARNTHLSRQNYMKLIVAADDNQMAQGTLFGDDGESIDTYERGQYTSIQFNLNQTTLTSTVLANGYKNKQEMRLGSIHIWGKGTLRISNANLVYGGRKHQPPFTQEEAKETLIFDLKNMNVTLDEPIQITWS

On to `C[C@@H]1NC[C@@H](O)[C@H](O)[C@@H]1O` [DEOXYFUCONOJIRIMYCIN], for which, in experiment [1], the affinity, expressed as Ki, was 1.7 nM.

As to `OC[C@@H]1NC[C@H](O)[C@@H](O)[C@H]1O`, the inhibition in experiment [2], in experiment [3], in experiment [4], in experiment [5], in experiment [6] and in experiment [7] was under 50% each time. This compound also came in with an inhibition in experiment [8] of under 50%.

For `OC[C@H]1NC[C@@H](O)[C@H](O)[C@@H]1O`, the inhibition in experiment [2], in experiment [3], in experiment [4], in experiment [5] and in experiment [7] was under 50% in each case.

For orientation: Ki means a dissociation constant, usually derived from enzyme kinetics or from competition with a known ligand. Read a low Ki as tighter binding. As a reminder, the inhibition is how much of the control response was suppressed. Higher therefore signals a response far below the control.
